The compounds below were run on Jeko-1 cells (assay: CellTiter-Glo 2.0 Cytotoxicity Assay). Conditions: Homo sapiens, JeKo-1, read-out: Jeko-1 EC50 (nM), Jeko-1 cells, 3000 cells/well; compounds added Day 1; CellTiter-Glo 2.0 luminescence read on Day 4 or 5.
Type: cell-based
Procedure: Reaction progress and synthetic intermediate analysis were assessed by LCMS (UV detection with ESI, APCI, or other mass detection) when applicable using a MeCN/water gradient with either TFA, formic acid, or NH4HCO3 modifier. Silica gel and reverse-phase flash column chromatography were conducted with commercially available pre-packed columns. Reverse-phase preparative HPLC purification was performed on preparative HPLC instruments with UV and MS detection using a MeCN/water gradient with either TFA, formic acid, or NH4OH modifier. ^1H NMR spectra were collected at room temperature, and chemical shifts are reported in ppm relative to the residual proteo-solvent signals, and multiplicities, coupling constants (where applicable), and signal integrations are listed parenthetically. Unless otherwise noted, all EC50 data presented in tables refers to the CellTiter-Glo® 2.0 Cytotoxicity Assay that is described in the Biological Assay section.
CellTiter-Glo® 2.0 Cytotoxicity Assay
Step 1: Seed 384-Well Plates for Assay (45 μL Per Well) on Day 0
Jeko-1 cells were quickly thawed in a cryo-vial by incubating them in a 37° C. water bath for <1 min until there is just a small bit of ice left in the vial. The vial was promptly removed and wiped down with 70% ethanol. The cells were transferred from the vial to a sterile centrifuge tube containing 8 mL of pre-warmed cell culture medium. The vial was flushed with an additional 1 mL of medium to ensure complete transfer of cells to the centrifuge tube. The cells were then centrifuged at 150×g for 5 minutes. The supernatant was aspirated, and the cell pellet was resuspended in 10-20 mL cell culture medium. Cells were counted using Vi-cell and prepared 6.6×10^4 cells/ml, 3000 cells/45 μL per well. Then added 45 μL/well of cells into Corning® 384-well Low Flange White Flat Bottom Polystyrene TC-treated Microplates (Corning, Cat #3570) using Standard Cassette Combi (if needed, dispense 1 dummy plate at 20 μL to help normalize Combi, using medium speed). The plates were spun down at 150×g for 30 seconds.
Step 2: Add Compounds on Day 1
The compound plates and reference compound stock were taken out and allowed to thaw at RT. The tubes were centrifuged at 2000×g for 30 seconds. The 10× Intermediate assay plates (Greiner plate, Cat #781280) were prepared using an Echo liquid handler. Proper buffer (HBSS (Gibco, Cat #14025-092)+10 mM HEPES (Gibco, Cat #15630-080)+0.1% BSA (Sigma, Cat #A9576)) were used to make serial dilutions. Media (no cells) was used for Max_E. Compound (5 μL of 10×) was transferred from intermediate plate to assay plate using a Bravo liquid handler using a very slow speed so the cell monolayer wasn't disturbed. The plates were spun down at 150×g for 30 seconds.
Step 3: CellTiter-Glo 2.0 Assay (Promega, Cat #G9242) on Day 4 or 5 (CellTiter-Glo Kit Stored at −70° C.)
The CellTiter-Glo® 2.0 Reagent was thawed at 4° C. overnight, taking care not to expose the reagent to temperatures above 25° C.). The kit was equilibrated to RT for approximately 30 minutes. CellTiter-Glo® 2.0 Reagent (20 μl) was added to 50 μl of medium containing cells using Standard Cassette Combi. The contents were mixed for 2-3 minutes on an orbital shaker to induce cell lysis. The plates were spun down at 150×g for 30 seconds. The plates were allowed to incubate at RT for 5 minutes to stabilize the luminescent signal.
Illustrative compounds of the present disclosure were tested in the above assay in Example 15, and results are provided in the Table 9 below: […]

| SMILES | EC50 [nM] |
| --- | --- |
| CC[C@@]1(O)C(=O)OCc2c1cc1n(c2=O)Cc2c-1nc1cc(F)c(C)c3c1c2[C@@H](NC(=O)[C@H](O)CCO)CC3 (single isomer, unassigned) [Compound 1] | 1.4 |
| CC[C@@]1(O)C(=O)OCc2c1cc1n(c2=O)Cc2c-1nc1cc(F)c(C)c3c1c2[C@@H](NC(=O)C(F)(F)C(C)O)CC3 (single isomer, unassigned) [Compound 7] | 1.7 |
| CC[C@@]1(O)C(=O)OCc2c1cc1n(c2=O)Cc2c-1nc1cc(F)c(C)c3c1c2[C@@H](NC(=O)C(CO)C(F)(F)F)CC3 (single isomer, unassigned) [Compound 10] | 4.4 |
| CC[C@@]1(O)C(=O)OCc2c1cc1n(c2=O)Cc2c-1nc1cc(F)c(C)c3c1c2[C@@H](NC(=O)C(N)C(F)(F)F)CC3 (single isomer, unassigned) [Compound 14] | 2.8 |
| CC[C@@]1(O)C(=O)OCc2c1cc1n(c2=O)Cc2c-1nc1cc(F)c(C)c3c1c2[C@@H](NC(=O)C(C)(N)C(F)(F)F)CC3 (single isomer, unassigned) [Compound 16] | 1.6 |
| CC[C@@]1(O)C(=O)OCc2c1cc1n(c2=O)Cc2c-1nc1cc(F)c(C)c3c1c2[C@@H](NC(=O)C(CO)C1CC1)CC3 (single isomer, unassigned) [Compound 22] | 4.3 |
| CC[C@@]1(O)C(=O)OCc2c1cc1n(c2=O)Cc2c-1nc1cc(F)c(C)c3c1c2[C@@H](NC(=O)C(C)(F)CO)CC3 (single isomer, unassigned) [Compound 36] | 2.4 |
| CC[C@@]1(O)C(=O)OCc2c1cc1n(c2=O)Cc2c-1nc1cc(F)c(C)c3c1c2[C@@H](NC(=O)C(C)(CCO)C(F)F)CC3 (single isomer, unassigned) [Compound 39] | 4.9 |
| CC[C@@]1(O)C(=O)OCc2c1cc1n(c2=O)Cc2c-1nc1cc(F)c(C)c3c1c2[C@@H](NC(=O)[C@@H](O)CCO)CC3 [Compound 2] | 6.6 |
| CC[C@@]1(O)C(=O)OCc2c1cc1n(c2=O)Cc2c-1nc1cc(F)c(C)c3c1c2[C@@H](NC(=O)[C@H](O)C(C)(C)CO)CC3 [Compound 3] | 4.1 |
| CC[C@@]1(O)C(=O)OCc2c1cc1n(c2=O)Cc2c-1nc1cc(F)c(C)c3c1c2[C@@H](NC(=O)C(C)(CO)CO)CC3 [Compound 6] | 2.9 |
| CC[C@@]1(O)C(=O)OCc2c1cc1n(c2=O)Cc2c-1nc1cc(F)c(C)c3c1c2[C@@H](NC(=O)C(F)(F)CO)CC3 [Compound 9] | 4 |
| CC[C@@]1(O)C(=O)OCc2c1cc1n(c2=O)Cc2c-1nc1cc(F)c(C)c3c1c2[C@@H](NC(=O)C(C)(N)C(F)F)CC3 (stereo partly drawn) [Compound 13] | 4.2 |
| CC[C@@]1(O)C(=O)OCc2c1cc1n(c2=O)Cc2c-1nc1cc(F)c(C)c3c1c2[C@@H](NC(=O)C(C)(N)C1CC1)CC3 (stereo partly drawn) [Compound 20] | 5.2 |
| CC[C@@]1(O)C(=O)OCc2c1cc1n(c2=O)Cc2c-1nc1cc(F)c(C)c3c1c2[C@@H](NC(=O)[C@H](O)CCOC(F)F)CC3 [Compound 21, (R)-4-(difluoromethoxy)-N-((1S,9S)-9-ethyl-5-fluoro-9-hydroxy-4-methyl-10,13-dioxo-2,3,9,10,13,15-hexahydro-1H,12H-benzo[de]pyrano[3′,4′: 6,7]indolizino[1,2-b]quinolin-1-yl)-2-hydroxybutanamide] | 3.6 |
| CC[C@@]1(O)C(=O)OCc2c1cc1n(c2=O)Cc2c-1nc1cc(F)c(C)c3c1c2[C@@H](NC(=O)[C@@H](O)CO)CC3 [Compound 28, (1S,9S)-1-((S)-2,3-dihydroxypropanamido)-9-ethyl-5-fluoro-9-hydroxy-4-methyl-10,13-dioxo-2,3,9,10,13,15-hexahydro-1H,12H-benzo[de]pyrano[3′,4′: 6,7]indolizino[1,2-b]quinolin-7-ium hexafluorophosphate (V)] | 9.7 |

Same assay, conditions: Homo sapiens; Jeko-1 cells, 3000 cells/well; compounds added Day 1; CellTiter-Glo 2.0 luminescence read on Day 4 or 5; read-out: Jeko-1 EC50

| SMILES | EC50 [nM] |
| --- | --- |
| CC[C@@]1(O)C(=O)OCc2c1cc1n(c2=O)Cc2c-1nc1cc(F)c(C)c3c1c2[C@@H](NC(=O)C(C)(C)CO)CC3 [Compound 24, N-((1S,9S)-9-ethyl-5-fluoro-9-hydroxy-4-methyl-10,13-dioxo-2,3,9,10,13,15-hexahydro-1H,12H-benzo[de]pyrano[3′,4′: 6,7]indolizino[1,2-b]quinolin-1-yl)-3-hydroxy-2,2-dimethylpropanamide] | 1.8 |
| CC[C@@]1(O)C(=O)OCc2c1cc1n(c2=O)Cc2c-1nc1cc(F)c(C)c3c1c2[C@@H](NC(=O)C[C@H](C)O)CC3 [Compound 25] | 2.6 |
| CC[C@@]1(O)C(=O)OCc2c1cc1n(c2=O)Cc2c-1nc1cc(F)c(C)c3c1c2[C@@H](NC(=O)C[C@@H](C)O)CC3 [Compound 26] | 2.9 |
| CC[C@@]1(O)C(=O)OCc2c1cc1n(c2=O)Cc2c-1nc1cc(F)c(C)c3c1c2[C@@H](NC(=O)CCO)CC3 [Compound 27] | 3.1 |

Same assay, conditions: read-out: Jeko-1 EC50; Jeko-1 cells, 3000 cells/well; compounds added Day 1; CellTiter-Glo 2.0 luminescence read on Day 4 or 5

| SMILES | EC50 [nM] |
| --- | --- |
| CC[C@@]1(O)C(=O)OCc2c1cc1n(c2=O)Cc2c-1nc1cc(F)c(C)c3c1c2[C@@H](NC(=O)C(C)(O)CO)CC3 (single isomer, unassigned) [Compound 4] | 1.2 |
| CC[C@@]1(O)C(=O)OCc2c1cc1n(c2=O)Cc2c-1nc1cc(F)c(C)c3c1c2[C@@H](NC(=O)C(C)(O)CO)CC3 (single isomer, unassigned) [Compound 5] | 6.7 |
| CC[C@@]1(O)C(=O)OCc2c1cc1n(c2=O)Cc2c-1nc1cc(F)c(C)c3c1c2[C@@H](NC(=O)C(F)(F)C(C)O)CC3 (single isomer, unassigned) [Compound 8] | 1.6 |
| CC[C@@]1(O)C(=O)OCc2c1cc1n(c2=O)Cc2c-1nc1cc(F)c(C)c3c1c2[C@@H](NC(=O)C(CO)C(F)(F)F)CC3 (single isomer, unassigned) [Compound 11] | 5.3 |
| CC[C@@]1(O)C(=O)OCc2c1cc1n(c2=O)Cc2c-1nc1cc(F)c(C)c3c1c2[C@@H](NC(=O)C(N)C(F)(F)F)CC3 (single isomer, unassigned) [Compound 15] | 2.9 |
| CC[C@@]1(O)C(=O)OCc2c1cc1n(c2=O)Cc2c-1nc1cc(F)c(C)c3c1c2[C@@H](NC(=O)C(C)(N)C(F)(F)F)CC3 (single isomer, unassigned) [Compound 17] | 2 |
| CC[C@@]1(O)C(=O)OCc2c1cc1n(c2=O)Cc2c-1nc1cc(F)c(C)c3c1c2[C@@H](NC(=O)C(N)(Cc1ccccc1)C(F)(F)F)CC3 (single isomer, unassigned) [Compound 18] | 44 |
| CC[C@@]1(O)C(=O)OCc2c1cc1n(c2=O)Cc2c-1nc1cc(F)c(C)c3c1c2[C@@H](NC(=O)C(N)(Cc1ccccc1)C(F)(F)F)CC3 (single isomer, unassigned) [Compound 19] | 5.7 |
| CC[C@@]1(O)C(=O)OCc2c1cc1n(c2=O)Cc2c-1nc1cc(F)c(C)c3c1c2[C@@H](NC(=O)C(CO)C1CC1)CC3 (single isomer, unassigned) [Compound 23] | 4.6 |
| CC[C@@]1(O)C(=O)OCc2c1cc1n(c2=O)Cc2c-1nc1cc(F)c(C)c3c1c2[C@@H](NC(=O)C(F)CO)CC3 (single isomer, unassigned) [Compound 34] | 4.3 |
| CC[C@@]1(O)C(=O)OCc2c1cc1n(c2=O)Cc2c-1nc1cc(F)c(C)c3c1c2[C@@H](NC(=O)C(F)CO)CC3 (single isomer, unassigned) [Compound 35] | 1.5 |
| CC[C@@]1(O)C(=O)OCc2c1cc1n(c2=O)Cc2c-1nc1cc(F)c(C)c3c1c2[C@@H](NC(=O)C(C)(F)CO)CC3 (single isomer, unassigned) [Compound 37] | 3.1 |
| CC[C@@]1(O)C(=O)OCc2c1cc1n(c2=O)Cc2c-1nc1cc(F)c(C)c3c1c2[C@@H](NC(=O)C(C)(CCO)C(F)F)CC3 (single isomer, unassigned) [Compound 40] | 4.6 |
